Assays:
LAPC4 cells = test: Cell Titer Glo cell viability assay, LAPC4; assay type: cell-based, human; settings: 10 μM; androgen depleted conditions (CSS); 24 and 48 h
Method: (§1) FIGS. 3A-3B show cellular toxicity of the lead compounds in androgen-dependent prostate cancer cell lines. (3A) LNCaP cells were plated in a 96-well plate at 1×10^4 cells/well in the presence of Fetal Bovine Serum (FBS) or Charcoal stripped Serum (CSS). Cells were allowed to attach overnight and were treated with either vehicle (DMSO) or 10 μM of indicated compound. At 24 and 48 h cellular viability was compared using the Cell Titer Glo Luminescent Cell Viability kit. (3B) LAPC4 cells were plated in a 96-well plate at a density of 1×10^4 cells/well in the presence of FBS or CSS. Cells were allowed to attach overnight and treated with 10 μM of indicated compound.
(§2) Cell viability was determined using the Cell Titer Glo Cell Viability Assay (Promega, Madison, Wis.), as recommended by manufacturer. All experiments were performed in quadruplicate.

LNCaP cells = test: Cell Titer Glo cell viability assay, LNCaP; assay type: cell-based; settings: 10 μM; androgen depleted conditions (CSS); 24 and 48 h
Method: as §1, §2

pol β = pol β (Homo sapiens, UniProt P06746); test: Pol β DNA synthesis on 1-nt gap substrate; assay type: biochemical
Method: Lane 1 represents the substrate only. Lanes 2 and 3 indicates the reaction mixture with 5 nM LIG I in the absence and presence of DMSO. […] The substrate was ^32P-labeled at the 5′-end of the upstream strand and is illustrated above the gel. The experiments were repeated at least three times. Representative gel is illustrated. Quantification of the results is shown below the gel. Two-way ANOVA with Tukey's multiple comparison posttests was used to determine statistically significant differences. * signifies p<0.05 compared to the control reaction with LIG I and DMSO. […] Lane 1 represents the substrate only. Lanes 2 and 3 indicates the reaction mixture with 5 nM pol β in the absence and presence of DMSO. […] The substrate was ^32P-labeled at the 5′-end of the upstream strand and is illustrated above the gel. The experiments were repeated at least three times. Quantification of the results are shown below the gel. Two-way ANOVA with Tukey's multiple comparison posttests was used to determine statistical significance. * signifies p<0.05 compared to the control reaction with pol β and DMSO.
BER reactions were terminated by adding 2× stopping buffer containing 95% formamide and 10 mM EDTA. Reaction mixtures were then denatured at 95° C. for 5 min and separated by 15% urea-denaturing polyacrylamide gel electrophoresis. Substrates and products were detected and analyzed using a Pharos FX Plus PhosphorImager (Bio-Rad, Hercules, Calif.).

PNT1A cells = test: RTCA impedance proliferation assay, PNT1A; assay type: cell-based; settings: 10 μM
Method: (6A-6B) PNT1A cells were plated onto xCelligence E-plates at 5×10^4 cells per well in media supplemented with 10% FBS (6A) or CSS (6B). Cells were allowed to attach overnight and treated with vehicle (DMSO) or 10 μM of indicated compounds. Cellular impedance was monitored continuously with 30 min intervals. (6C) RWPE1 cells were plated at 5×10^4 cells per well in serum free medium supplemented with Epidermal Growth Factor (EGF) and Bovine Pituitary Extract ([…]) onto E-plates and treated with 10 μM of indicated compounds as indicated. […] Background impedance was established after incubating E-plates (Acea Biosciences, San Diego, Calif.) with 50 μL media at room temperature for 30 min and placed in RTCA. Cells were then seeded in 100 μL per well. Cells attached overnight and then treated. During attachment stage and after treatment impedance was measured every 30 min. Impedance is represented by cell index and is calculated as follows: CI=(Zi−Zo)/15Ω where Zi is impedance at an individual time point, and Zo is the background impedance. Average CI was calculated from four wells per treatment at each time point and normalized to the impedance immediately after compound addition.

FEN1 = FEN1 (Homo sapiens, UniProt P39748); test: FEN1 activity; assay type: biochemical
Method: 10 μM hit compounds were incubated with 10 nM pol β, 10 nM FEN1 and 20 nM LIG I in BER reaction buffer containing 50 mM Tris-HCl (pH 7.5), 50 mM KCl, 0.1 mM EDTA, 0.1 mg/ml bovine serum albumin, and 0.01% Nonidet P-40 in the presence of 5 mM Mg^2+ and 2 mM ATP. The compounds were initially preincubated with a BER enzyme at varying concentrations for 1 h with rotation. This was followed by the addition of 25 nM ^32P-labeled substrate containing an abasic site, which was precut with 25 or 50 nM APEI. The reaction mixture (20 μL) was incubated at 37° C. for 30 min, and the reaction was terminated by 50 mM EDTA. Substrates, products, and unrepaired BER intermediates were separated by 15% urea-denaturing sequencing gel and detected by a Pharos FX Plus PhosphorImager (Bio-Rad, Hercules, Calif.).

RWPE1 cells = test: RTCA impedance proliferation assay, RWPE1; assay type: cell-based; settings: 10 μM; serum free medium
Method: (6A-6B) PNT1A cells were plated onto xCelligence E-plates at 5×10^4 cells per well in media supplemented with 10% FBS (6A) or CSS (6B). Cells were allowed to attach overnight and treated with vehicle (DMSO) or 10 μM of indicated compounds. Cellular impedance was monitored continuously with 30 min intervals. (6C) RWPE1 cells were plated at 5×10^4 cells per well in serum free medium supplemented with Epidermal Growth Factor (EGF) and Bovine Pituitary Extract ([…]) onto E-plates and treated with 10 μM of indicated compounds as indicated. […] Proliferation assays were done using Roche DP Real Time Cell Analyzer (RTCA), as described by the manufacturer. Background impedance was established after incubating E-plates (Acea Biosciences, San Diego, Calif.) with 50 μL media at room temperature for 30 min and placed in RTCA. Cells were then seeded in 100 μL per well. Cells attached overnight and then treated. During attachment stage and after treatment impedance was measured every 30 min. Impedance is represented by cell index and is calculated as follows: CI=(Zi−Zo)/15Ω where Zi is impedance at an individual time point, and Zo is the background impedance. Average CI was calculated from four wells per treatment at each time point and normalized to the impedance immediately after compound addition.

Sequence of FEN1 (P39748 whole entry): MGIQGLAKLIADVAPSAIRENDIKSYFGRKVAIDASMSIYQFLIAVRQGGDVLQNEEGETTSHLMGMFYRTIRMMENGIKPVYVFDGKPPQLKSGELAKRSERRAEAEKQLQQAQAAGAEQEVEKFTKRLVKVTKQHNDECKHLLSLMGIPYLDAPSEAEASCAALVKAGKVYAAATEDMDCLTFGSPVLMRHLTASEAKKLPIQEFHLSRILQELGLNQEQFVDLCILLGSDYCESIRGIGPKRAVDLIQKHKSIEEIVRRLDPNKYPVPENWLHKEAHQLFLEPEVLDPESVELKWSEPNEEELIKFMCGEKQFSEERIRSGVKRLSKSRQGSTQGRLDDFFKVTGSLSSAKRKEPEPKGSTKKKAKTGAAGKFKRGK

C[C@@H]1C/C=C/C=C/C=C/C=C/[C@H](O[C@@H]2O[C@H](C)[C@@H](O)[C@H](N)[C@@H]2O)C[C@@H]2O[C@](O)(C[C@@H](O)C[C@H]3O[C@@H]3/C=C/C(=O)O1)C[C@H](O)[C@H]2C(=O)O [natamycin]
toxicity (cell viability) in LAPC4 (LAPC4 cells): highest toxicity
toxicity (cell viability) in LNCaP (LNCaP cells): highest toxicity
pol β 1 nt gap-filling synthesis (pol β; FIG. 8B, lanes 5-7): did not inhibit
pol β strand-displacement synthesis (pol β; at 2 nM-5 nM): significant inhibitory effect
reduction of pol β activity (pol β; at 10 (unit not given) natamycin, 5 nM pol β): 3 fold
PNT1A cell proliferation, concentration dependence (PNT1A cells; 1 μM and 0.1 μM, both CSS and FBS medium): inhibited only with 10 μM
time of treatment at which effect on PNT1A proliferation became evident (PNT1A cells; FBS and CSS media): 42 h
PNT1A proliferation (PNT1A cells; both FBS and CSS supplemented media): proliferated in the presence of all inhibitors except natamycin
inhibitory effect on FEN1 (FEN1): No inhibitory effect
RWPE1 proliferation (RWPE1 cells): slightly inhibited
